These results are taken from patent publication US9073821B2, “Hydroxamic acid derivative” (priority 2010, dated 2015).

Structures are written as SMILES.

This experiment deals with Pseudomonas aeruginosa LpxC enzyme (Pseudomonas aeruginosa (strain ATCC 15692 / DSM 22644 / CIP 104116 / JCM 14847 / LMG 12228 / 1C / PRS 101 / PAO1), UniProt P47205). The experiment can be described thus: biochemical. It is filed as biochemical. To be noted: inhibitory activity on Pseudomonas aeruginosa LpxC enzyme, class symbols A/B/C; read-out: Enzyme inhibitory activity.
On to `CSCCNC(=O)C(NC(=O)c1ccc(-c2ccc(OCCO)cc2)cc1)C(=O)NO` (stereo not shown) [Compound 132, N-hydroxy-2-({[4′-(2-hydroxyethoxy)biphenyl-4-yl]carbonyl}amino)-N′-[2-(methylsulfanyl)ethyl]propanediamide], for which the IC50 was < 10 nM. The value for `Cc1cc(CNC(=O)C(NC(=O)c2ccc(-c3ccc(OCCO)cc3)cc2)C(=O)NO)no1` (stereo not shown) [Compound 133, N-hydroxy-2-({[4′-(2-hydroxyethoxy)biphenyl-4-yl]carbonyl}amino)-N′-[(5-methyl-1,2-oxazol-3-yl)methyl]propanediamide] was < 10 nM; that for `O=C(NC(C(=O)NO)C(=O)NCC1CCCO1)c1ccc(-c2ccc(OCCO)cc2)cc1` (stereo not shown) [Compound 134, N-hydroxy-2-({[4′-(2-hydroxyethoxy)biphenyl-4-yl]carbonyl}amino)-N′-(tetrahydrofuran-2-ylmethyl)propanediamide] was < 10 nM; that for `CC(=O)NCCNC(=O)C(NC(=O)c1ccc(-c2ccc(OCCO)cc2)cc1)C(=O)NO` (stereo not shown) [Compound 135, N-[2-(acetylamino)ethyl]-N′-hydroxy-2-({[4′-(2-hydroxyethoxy)biphenyl-4-yl]carbonyl}amino)propanediamide] was < 10 nM. In the case of `CC(C)(C)CNC(=O)C(NC(=O)c1ccc(-c2ccc(OCCO)cc2)cc1)C(=O)NO` (stereo not shown) [Compound 136, N-(2,2-dimethylpropyl)-N′-hydroxy-2-({[4′-(2-hydroxyethoxy)biphenyl-4-yl]carbonyl}amino)propanediamide], the IC50 was 10 to 100 nM. Consider `O=C(NC(C(=O)NO)C(=O)NCC(F)F)c1ccc(-c2ccc(OCCO)cc2)cc1` (stereo not shown) [Compound 137, N-(2,2-difluoroethyl)-N′-hydroxy-2-({[4′-(2-hydroxyethoxy)biphenyl-4-yl]carbonyl}amino)propanediamide], for which the IC50 lay within 10 to 100 nM. Regarding `O=C(NC(C(=O)NO)C(=O)NCCOc1ccccc1)c1ccc(-c2ccc(OCCO)cc2)cc1` (stereo not shown) [Compound 138, N-hydroxy-2-({[4′-(2-hydroxyethoxy)biphenyl-4-yl]carbonyl}amino)-N′-(2-phenoxyethyl)propanediamide], the IC50 was < 10 nM. For the compound `CCNC(=O)C(NC(=O)c1ccc(-c2ccc(OCCO)cc2)cc1)C(=O)NO` (stereo not shown) [Compound 139, N-ethyl-N′-hydroxy-2-({[4′-(2-hydroxyethoxy)biphenyl-4-yl]carbonyl}amino)propanediamide], the IC50 lay in the range of 10 to 100 nM. The value for `Cn1ccc(CNC(=O)C(NC(=O)c2ccc(-c3ccc(OCCO)cc3)cc2)C(=O)NO)n1` (stereo not shown) [Compound 140, N-hydroxy-2-({[4′-(2-hydroxyethoxy)biphenyl-4-yl]carbonyl}amino)-N′-[(1-methyl-1H-pyrazol-3-yl)methyl]propanediamide] was < 10 nM. The value for `O=C(NC(C(=O)NO)C(=O)NCC(=O)N1CCCC1)c1ccc(-c2ccc(OCCO)cc2)cc1` (stereo not shown) [Compound 141, N-hydroxy-2-({[4′-(2-hydroxyethoxy)biphenyl-4-yl]carbonyl}amino)-N′-[2-oxo-2-(pyrrolidin-1-yl)ethyl]propanediamide] was < 10 nM; that for `CCCNC(=O)C(NC(=O)c1ccc(-c2ccc(OCCO)cc2)cc1)C(=O)NO` (stereo not shown) [Compound 142, N-hydroxy-2-({[4′-(2-hydroxyethoxy)biphenyl-4-yl]carbonyl}amino)-N′-propylpropanediamide] was 10 to 100 nM; that for `CC(C)NC(=O)C(NC(=O)c1ccc(-c2ccc(OCCO)cc2)cc1)C(=O)NO` (stereo not shown) [Compound 143, N-hydroxy-2-({[4′-(2-hydroxyethoxy)biphenyl-4-yl]carbonyl}amino)-N′-(propan-2-yl)propanediamide] was 10 to 100 nM. As to `CN(C)C(=O)CNC(=O)C(NC(=O)c1ccc(-c2ccc(OCCO)cc2)cc1)C(=O)NO` (stereo not shown) [Compound 144, N-[2-(dimethylamino)-2-oxoethyl]-N′-hydroxy-2-({[4′-(2-hydroxyethoxy)biphenyl-4-yl]carbonyl}amino)propanediamide], the IC50 is < 10 nM.
